Assay results from the CheMixHub viscosity set.

Assay: xn = mol fraction of the nth substance listed

CC1CCCCC1 + CC(C)CC(C)(C)C
viscosity [mPa·s], 101 kPa
Conditions	298.15 K	303.15 K	308.15 K
x1 = 0.1032	–	0.462	–
x1 = 0.105	–	0.466	0.438
x1 = 0.201	–	0.478	–
x1 = 0.221	–	0.4798	–
x1 = 0.3024	0.522	0.492	0.462
x1 = 0.399	–	0.5062	–
x1 = 0.4039	0.539	0.508	0.476
x1 = 0.4974	–	0.524	–
x1 = 0.4998	0.556	0.523	0.491
x1 = 0.5998	–	0.5431	–
x1 = 0.6064	0.577	0.543	0.509
x1 = 0.6991	0.597	0.562	0.526
x1 = 0.7018	–	0.5656	–
x1 = 0.8004	0.62	0.583	0.546
x1 = 0.8012	–	0.5892	–
x1 = 0.8991	–	0.6154	–
x1 = 0.9007	0.648	0.608	0.568

CCOC(=O)[C@@H](O)[C@H](O)C(=O)OCC + CC(C)CCO
viscosity [mPa·s], 101 kPa
Conditions	x1 = 0.1	x1 = 0.2	x1 = 0.3	x1 = 0.4001	x1 = 0.5	x1 = 0.6001	x1 = 0.6999	x1 = 0.7997	x1 = 0.8998
293.15 K	5.227	7.032	9.91	13.58	20.31	31.03	46.13	74.54	129.6
298.15 K	4.438	5.859	8.123	10.83	15.81	23.2	33.35	51.5	84.95
303.15 K	3.768	4.88	6.638	8.752	12.37	17.66	24.71	36.84	58.14
308.15 K	3.225	4.138	5.497	7.134	9.862	13.75	18.79	27.17	41.31
313.15 K	2.774	3.487	4.567	5.855	7.945	10.86	14.56	20.53	30.25
318.15 K	2.416	3.02	3.904	4.935	6.58	8.824	11.61	15.99	22.88
323.15 K	2.13	2.649	3.374	4.215	5.529	7.295	9.449	12.74	17.8

CCCCCl + CC(C)CO
viscosity [mPa·s], 101 kPa
Conditions	x1 = 0.0951	x1 = 0.2057	x1 = 0.3038	x1 = 0.4102	x1 = 0.5035	x1 = 0.6121	x1 = 0.7033	x1 = 0.8022	x1 = 0.9043
298.15 K	2.41	1.677	1.261	0.9677	0.7931	0.6506	–	0.5	0.4513
313.15 K	1.576	1.152	0.9054	0.7239	0.6137	0.5199	0.4687	0.4153	0.3832

CCOC(=O)[C@@H](O)[C@H](O)C(=O)OCC + CC(C)CO
viscosity [mPa·s], 101 kPa
Conditions	x1 = 0.1	x1 = 0.2	x1 = 0.3001	x1 = 0.3999	x1 = 0.5	x1 = 0.6001	x1 = 0.6989	x1 = 0.7998	x1 = 0.8994
293.15 K	5.103	7.263	10.49	15.86	24.25	34.35	50.55	88.25	140.9
298.15 K	4.28	5.98	8.485	12.38	18.34	25.34	36.11	59.79	91.12
303.15 K	3.601	4.928	6.848	9.831	14.09	19.07	26.5	42.09	62.16
308.15 K	3.052	4.111	5.611	7.889	11.06	14.71	19.99	30.63	43.93
313.15 K	2.607	3.444	4.609	6.39	8.797	11.53	15.38	22.88	31.96
318.15 K	2.249	2.956	3.912	5.322	7.201	9.298	12.19	17.64	24.09
323.15 K	1.973	2.567	3.358	4.497	5.991	7.637	9.865	13.94	18.67

CC1CCCCC1 + CC(C)O
viscosity [mPa·s], 100 kPa
Conditions	x1 = 0.081	x1 = 0.1601	x1 = 0.2401	x1 = 0.35	x1 = 0.44	x1 = 0.5602	x1 = 0.65	x1 = 0.7401	x1 = 0.8501	x1 = 0.9403
293.15 K	1.88	1.47	1.17	0.89	0.78	0.72	0.73	0.75	0.77	0.76
298.15 K	1.65	1.33	1.08	0.87	0.76	0.71	0.7	0.7	–	0.71
303.15 K	–	1.18	0.98	0.81	0.73	0.7	0.69	0.68	0.68	0.67
308.15 K	1.26	1.05	0.89	0.74	0.67	0.64	0.63	0.63	0.64	0.62
313.15 K	1.1	0.92	0.79	0.65	0.6	0.58	0.57	0.58	0.59	0.6
318.15 K	0.97	0.82	0.7	0.6	0.55	0.54	0.54	0.55	0.56	0.55
323.15 K	0.84	0.69	0.58	0.49	0.46	0.46	0.47	0.49	0.51	0.52

CCCCCl + CC(C)O
298.15 K, 101 kPa
Conditions	viscosity [mPa·s]
x2 = 0.1	0.438
x2 = 0.1661	0.468
x2 = 0.225	0.47
x2 = 0.2891	0.493
x2 = 0.35	0.522
x2 = 0.4295	0.579
x2 = 0.5105	0.642
x2 = 0.5479	0.675
x2 = 0.6603	0.809
x2 = 0.7645	1.044
x2 = 0.8538	1.338
x2 = 0.92	1.615

CCOC(=O)c1ccccc1 + CC(C)O
viscosity [mPa·s], 101 kPa
Conditions	x1 = 0.056	x1 = 0.1177	x1 = 0.1862	x1 = 0.2624	x1 = 0.348	x1 = 0.4446	x1 = 0.546	x1 = 0.681	x1 = 0.8277
303.15 K	1.659	1.664	1.671	1.678	1.686	1.695	1.706	1.719	1.733
308.15 K	1.501	1.508	1.515	1.525	1.532	1.541	1.551	1.563	1.577
313.15 K	1.327	1.337	1.345	1.356	1.367	1.38	1.394	1.409	1.426
318.15 K	1.192	1.203	1.213	1.225	1.239	1.254	1.27	1.291	1.313
323.15 K	1.074	1.085	1.099	1.114	1.13	1.15	1.167	1.194	1.222
